Test results from US7416722B2, “Concentrated, aqueous solutions of p-methoxybenzoic acid for use in cosmetic and dermatologic formulations” (Dr. Straetmans GmbH, priority 2005, dated 2008).
In brackets after ≈: the same amount, converted by molar mass.

Experiment: solubility of p-methoxybenzoic acid in water
Type: physicochemical
From the text: p-Methoxybenzoic acid can be obtained under the trade name of DERMOSOFT® 688 from Dr. Straetmans GmbH in a cosmetical grade. The solubility of p-methoxybenzoic acid in water is approximately […]. For use in a cosmetic formulation the product is usually brought into solution with sodium hydroxide or potassium hydroxide in a small amount of water at warm temperatures and worked into an aqueous phase. To evolve the spectrum of effects of p-methoxybenzoic acid completely, afterwards the formula should be re-acidified to a pH-value of 5.5. […] This may show, that the initial homogenous solutions are merely meta-stable systems.

solubility: ~5000 µg/mL (≈ 32.9 mM)
SMILES: COc1ccc(C(=O)O)cc1 [p-methoxybenzoic acid]
